Laboratory results as given in patent US20100028892A1, “YEAST BASED EXPRESSION OF PROTEASES AND METHODS OF USE” (Burnham Institute for Medical Research, priority 2008, published 2010).

What was measured:
Caspase-8 = Caspase-8 (Homo sapiens, UniProt Q14790); experiment: in vitro biochemical assay with purified recombinant Caspase-8 and fluorigenic substrate Ac-IETD-AFC; details: purified recombinant Caspase-8, Ac-IETD-AFC, various concentrations of compound
Method: The results of a HTS of a yeast-based NALP1 inflammasome assay are shown in FIG. 12 consisting of FIGS. 12A-G (A) NALP1 yeast screen controls. Yeast cells containing ASC/Nalp1ΔLRR/Caspase1 were plated at 1.88×10^5 cells/well in a 384 well plate in media containing 1% galactose/2% raffinose, with (squares) or without (diamonds) 400 μg/ml X-gal substrate. The plates were incubated for 72 hrs at 30° C. and the plates were read at OD620. (B) Yeast Screen of LOPAC compound library plate 4 for NALP1. Yeast cells containing ASC/NALP1/Caspase1 were plated at 1.88×10^5 cells/well in a 384 well plate in media containing 1% galactose, 2% raffinose, with or without 400 μg/ml X-gal. The plates were incubated for 72 hrs at 30° C. and the plates were read at OD620. The compounds were screened at 100 μM and “hits” were defined by >50% reduction (as shown). (C) Validation of HTS assay for Fas-FADD-Caspase-8 system. Yeast cells containing Fas/FADD/Caspase-8 were cultured in 384 well plates as above with (blue squares) or without (purple diamonds) Xgal substrate, the plates were incubated for 72 hrs at 30° C. and analyzed as above. (D) Example of library screening plate for Fas-FADD-Caspase-8. […] Plates were incubated for 48 hrs at 30° C. and OD620 values recorded. […] Data represent relative fluorescence units (RFU) assessed in the absence or presence of various concentrations of compound (CID-2531).

Caspases = experiment: validation of 384 well yeast-based Caspase-dependent lacZ reporter gene assays with pharmacological inhibitors; format: cell-based, human; details: 384 well yeast-based Caspase-dependent reporter gene assay
Description: When converting the yeast-based protease reporter system to HTS assay, conditions from agar plates to liquid medium in microtiter wells must be revised. This revision comprises, utilizing the measured β-galactosidase produced by yeast carrying the Caspase-cleavable reporter proteins, and assaying the colorimetric product (OD620nm) derived from X-gal substrate in 384 well plates, as a measure of the lacZ reporter gene activity. We compared β-galactosidase activity produced in the presence or absence of the broad-spectrum caspase inhibitory compound, zVAD-fmk ([…]-Valinyl-Alaninyl-Aspartyl-fluoromethylketone). Among the variables that were initially interrogated were initial seeding cell density, time of culture, concentration of X-gal substrate, and supporting carbohydrate (raffinose vs mannose). Note that it was determined that it is not advisible to employ glucose in yeast media because it represses the GAL1 promoter used in some plasmids. An example of data obtained using the plural-component system of Fas/FADD/Caspase-8 is presented. All variables tested altered the signal:noise ratio of the assay. […] For the two-component system of ASC/Caspase-1 and for the plural-component system of NALP1ΔLRR/ASC/Caspase-1, the same conditions were optimal, among those tested (not shown). For the Fas/Fadd/Caspase 8, the caspase and adaptor protein (Fadd) were expressed at relatively small amounts (a weak promoter and low copy number plasmid are used) and the upstream activator (Fas) was expressed in a large amount.
The 384 well assay format was further validated, using zVAD-fmk, a peptidyl inhibitor with broad-spectrum activity against animal Caspases. […]
The validation results of a yeast-based Caspase assay using a pharmacological inhibitor of Caspases are shown in FIG. 11 consisting of FIGS. 11A-C (A) Caspase-1, single-component assay. […] For (A-C), relative absorbance at 620 nm was measured (mean ±std dev; n=3-5 independent experiments). […]
Assays were performed in a total volume of […] in triplicate. […] Absorbance at 620 nm was measured 2-3 days after culture at 30° C.

Fas/FADD/Caspase-8 = biological target: T1, Fas/FADD/Caspase-8 (Homo sapiens, UniProt P25445+Q13158+Q14790); experiment: yeast Fas/FADD/Caspase-8 HTS assay with counter-screen strains (lacZ, Asc/Caspase-1, empty vector); format: cell-based; details: 384 well, OD620, 2-4 days at 30° C., versus lacZ, Asc/Caspase-1 and empty vector strains
T1 construct: a small amount of each full-length Caspase construct was expressed with a large amount of adaptor protein FADD; HA (C); expressed in transfected cells; host or cells: Saccharomyces cerevisiae EGY48
T1 sequence (Q14790 whole entry): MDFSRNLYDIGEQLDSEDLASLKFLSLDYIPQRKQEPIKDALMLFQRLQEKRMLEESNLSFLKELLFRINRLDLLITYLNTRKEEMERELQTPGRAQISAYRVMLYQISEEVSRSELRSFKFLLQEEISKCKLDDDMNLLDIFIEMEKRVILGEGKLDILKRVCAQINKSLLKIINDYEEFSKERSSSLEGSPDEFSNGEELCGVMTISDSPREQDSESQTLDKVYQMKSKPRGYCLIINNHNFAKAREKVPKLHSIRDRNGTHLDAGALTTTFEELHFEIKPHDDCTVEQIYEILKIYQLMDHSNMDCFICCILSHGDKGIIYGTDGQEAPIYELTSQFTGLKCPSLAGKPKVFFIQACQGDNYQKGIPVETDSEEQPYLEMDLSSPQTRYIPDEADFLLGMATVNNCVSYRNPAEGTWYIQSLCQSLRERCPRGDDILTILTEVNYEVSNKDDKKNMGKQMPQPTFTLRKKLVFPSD
T1 sequence (Q13158 whole entry): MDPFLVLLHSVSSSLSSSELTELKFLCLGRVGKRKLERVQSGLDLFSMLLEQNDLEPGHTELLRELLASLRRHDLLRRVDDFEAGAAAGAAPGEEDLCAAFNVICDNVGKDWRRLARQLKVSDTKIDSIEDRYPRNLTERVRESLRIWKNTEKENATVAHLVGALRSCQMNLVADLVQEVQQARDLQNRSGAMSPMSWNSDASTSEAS
T1 sequence (P25445 26-335): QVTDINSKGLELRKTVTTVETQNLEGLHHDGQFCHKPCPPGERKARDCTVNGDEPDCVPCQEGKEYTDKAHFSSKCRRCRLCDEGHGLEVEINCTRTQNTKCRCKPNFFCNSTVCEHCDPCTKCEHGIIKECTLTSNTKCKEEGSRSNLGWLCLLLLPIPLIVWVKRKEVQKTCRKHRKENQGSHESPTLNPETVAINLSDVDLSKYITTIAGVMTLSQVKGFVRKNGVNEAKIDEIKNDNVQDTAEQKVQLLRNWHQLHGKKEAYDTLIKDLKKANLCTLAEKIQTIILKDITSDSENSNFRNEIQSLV
Method: The results of a HTS of a yeast-based NALP1 inflammasome assay are shown in FIG. 12 consisting of FIGS. 12A-G (A) NALP1 yeast screen controls. Yeast cells containing ASC/Nalp1ΔLRR/Caspase1 were plated at 1.88×10^5 cells/well in a 384 well plate in media containing 1% galactose/2% raffinose, with (squares) or without (diamonds) 400 μg/ml X-gal substrate. The plates were incubated for 72 hrs at 30° C. and the plates were read at OD620. (B) Yeast Screen of LOPAC compound library plate 4 for NALP1. Yeast cells containing ASC/NALP1/Caspase1 were plated at 1.88×10^5 cells/well in a 384 well plate in media containing 1% galactose, 2% raffinose, with or without 400 μg/ml X-gal. The plates were incubated for 72 hrs at 30° C. and the plates were read at OD620. The compounds were screened at 100 μM and “hits” were defined by >50% reduction (as shown). (C) Validation of HTS assay for Fas-FADD-Caspase-8 system. Yeast cells containing Fas/FADD/Caspase-8 were cultured in 384 well plates as above with (blue squares) or without (purple diamonds) Xgal substrate, the plates were incubated for 72 hrs at 30° C. and analyzed as above. (D) Example of library screening plate for Fas-FADD-Caspase-8. […] Plates were incubated for 48 hrs at 30° C. and OD620 values recorded. […] Data represent relative fluorescence units (RFU) assessed in the absence or presence of various concentrations of compound (CID-2531). […]

Sequence of Caspase-8 (Q14790 217-479): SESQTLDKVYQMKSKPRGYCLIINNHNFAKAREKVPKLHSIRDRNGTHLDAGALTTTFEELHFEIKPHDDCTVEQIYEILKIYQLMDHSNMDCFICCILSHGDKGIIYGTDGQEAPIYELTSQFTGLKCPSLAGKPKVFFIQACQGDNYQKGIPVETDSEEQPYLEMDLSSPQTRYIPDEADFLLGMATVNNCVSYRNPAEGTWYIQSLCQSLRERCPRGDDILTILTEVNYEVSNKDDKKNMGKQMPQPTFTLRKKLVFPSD

Row | SMILES | selective inhibition of Fas-FADD-Caspase-8 (Fas/FADD/Caspase-8) | other results
1 | Clc1ccc(C(c2ccc(Cl)cc2)n2cc[n+](CC(OCc3ccc(Cl)cc3Cl)c3ccc(Cl)cc3Cl)c2)cc1 (stereo not shown) [CID-2531] |  | inhibition of Caspase-8 (relative fluorescence units) (Caspase-8): evidence of inhibition of Caspase-8
2 | CCCC[C@@H](C=O)NC(=O)[C@H](CC(C)C)NC(=O)OCc1ccccc1 [Calpain inhibitor, calpeptin] |  | effect on β-galactosidase activity / activation of the lacZ reporter gene (Caspases): did not suppress activation of the lacZ reporter gene
3 | C[n+]1cc2c3c(ccc2c2ccc4cc5c(cc4c21)OCO5)OCO3 [CID-5154] | evidence of selective inhibition | 
4 | c1ccc2c(c1)[I+]c1ccccc1-2 [CID-3101] | evidence of selective inhibition | 
